Source: BindingDB's records for doi:10.1021/acs.jmedchem.9b00500 (2019)
Bridge positions count the residues as written; N and C are the ends. Square brackets hold non-standard residues; d marks the D form. Peptide text beside a SMILES is read from it. I, II: the chains in the order shown. Phe(3,4-Cl2) = N[C@@H](Cc1ccc(Cl)c(Cl)c1)C(=O)O; tBuAla = CC(C)(C)C[C@H](N)C(=O)O; hLeu = CC(C)CC[C@H](N)C(=O)O; Nle = CCCC[C@H](N)C(=O)O

Biological target: Frizzled-7 (Homo sapiens, UniProt O75084)
Test: Binding affinity to recombinant human Frizzled-7 (Gln33 to Leu185 residues)/human IgG1 chimeric protein expressed in CHO cells assessed as […] by SPR assay

In order of rising Kd:
1. CSCC[C@H](NC(=O)[C@@H](NC(=O)[C@H](Cc1cnc[nH]1)NC(=O)[C@H](CSSC[C@H](NC(=O)[C@H](Cc1c[nH]c2ccccc12)NC(=O)[C@H](Cc1ccccc1)NC(=O)[C@H](CCC(=O)O)NC(=O)[C@H](CC(C)C)NC(=O)[C@H](CC(=O)O)NC(=O)[C@H](CC(=O)O)NC(=O)[C@H](CO)NC(C)=O)C(=O)N[C@@H](Cc1cnc[nH]1)C(=O)N[C@H](C(=O)N[C@@H](CCSC)C(=O)N[C@@H](Cc1ccc(Cl)c(Cl)c1)C(N)=O)C(C)C)NC(=O)[C@H](Cc1c[nH]c2ccccc12)NC(=O)[C@H](Cc1ccccc1)NC(=O)[C@H](CCC(=O)O)NC(=O)[C@H](CC(C)C)NC(=O)[C@H](CC(=O)O)NC(=O)[C@H](CC(=O)O)NC(=O)[C@H](CO)NC(C)=O)C(C)C)C(=O)N[C@@H](Cc1ccc(Cl)c(Cl)c1)C(N)=O (I: Ac-SDDLEFWCHVM[Phe(3,4-Cl2)]-NH2 / II: Ac-SDDLEFWCHVM[Phe(3,4-Cl2)]-NH2; disulfide I:8-II:8)  0.9 nM
2. CSCC[C@H](NC(=O)[C@@H](NC(=O)[C@H](Cc1cnc[nH]1)NC(=O)[C@H](CSSC[C@H](NC(=O)[C@H](Cc1c[nH]c2ccccc12)NC(=O)[C@H](Cc1ccccc1)NC(=O)[C@H](CCC(=O)O)NC(=O)[C@H](CC(C)(C)C)NC(=O)[C@H](CC(=O)O)NC(=O)[C@H](CC(=O)O)NC(=O)[C@H](CO)NC(C)=O)C(=O)N[C@@H](Cc1cnc[nH]1)C(=O)N[C@H](C(=O)N[C@@H](CCSC)C(=O)N[C@@H](Cc1ccc(O)cc1)C(N)=O)C(C)C)NC(=O)[C@H](Cc1c[nH]c2ccccc12)NC(=O)[C@H](Cc1ccccc1)NC(=O)[C@H](CCC(=O)O)NC(=O)[C@H](CC(C)(C)C)NC(=O)[C@H](CC(=O)O)NC(=O)[C@H](CC(=O)O)NC(=O)[C@H](CO)NC(C)=O)C(C)C)C(=O)N[C@@H](Cc1ccc(O)cc1)C(N)=O (I: Ac-SDD[tBuAla]EFWCHVMY-NH2 / II: Ac-SDD[tBuAla]EFWCHVMY-NH2; disulfide I:8-II:8)  0.95 nM
3. CC[C@H](C)[C@H](NC(=O)[C@H](Cc1cnc[nH]1)NC(=O)[C@H](CSSC[C@H](NC(=O)[C@H](Cc1c[nH]c2ccccc12)NC(=O)[C@H](Cc1ccccc1)NC(=O)[C@H](CCC(=O)O)NC(=O)[C@H](CC(C)C)NC(=O)[C@H](CC(=O)O)NC(=O)[C@H](CC(=O)O)NC(=O)[C@H](CO)NC(C)=O)C(=O)N[C@@H](Cc1cnc[nH]1)C(=O)N[C@H](C(=O)N[C@@H](CCSC)C(=O)N[C@@H](Cc1ccc(O)cc1)C(N)=O)[C@@H](C)CC)NC(=O)[C@H](Cc1c[nH]c2ccccc12)NC(=O)[C@H](Cc1ccccc1)NC(=O)[C@H](CCC(=O)O)NC(=O)[C@H](CC(C)C)NC(=O)[C@H](CC(=O)O)NC(=O)[C@H](CC(=O)O)NC(=O)[C@H](CO)NC(C)=O)C(=O)N[C@@H](CCSC)C(=O)N[C@@H](Cc1ccc(O)cc1)C(N)=O (I: Ac-SDDLEFWCHIMY-NH2 / II: Ac-SDDLEFWCHIMY-NH2; disulfide I:8-II:8)  0.96 nM
4. CSCC[C@H](NC(=O)[C@@H](CC1CCC1)NC(=O)[C@H](Cc1cnc[nH]1)NC(=O)[C@H](CSSC[C@H](NC(=O)[C@H](Cc1c[nH]c2ccccc12)NC(=O)[C@H](Cc1ccccc1)NC(=O)[C@H](CCC(=O)O)NC(=O)[C@H](CC(C)C)NC(=O)[C@H](CC(=O)O)NC(=O)[C@H](CC(=O)O)NC(=O)[C@H](CO)NC(C)=O)C(=O)N[C@@H](Cc1cnc[nH]1)C(=O)N[C@H](CC1CCC1)C(=O)N[C@@H](CCSC)C(=O)N[C@@H](Cc1ccc(O)cc1)C(N)=O)NC(=O)[C@H](Cc1c[nH]c2ccccc12)NC(=O)[C@H](Cc1ccccc1)NC(=O)[C@H](CCC(=O)O)NC(=O)[C@H](CC(C)C)NC(=O)[C@H](CC(=O)O)NC(=O)[C@H](CC(=O)O)NC(=O)[C@H](CO)NC(C)=O)C(=O)N[C@@H](Cc1ccc(O)cc1)C(N)=O  2.1 nM
5. CC[C@H](C)[C@H](NC(=O)[C@H](Cc1cnc[nH]1)NC(=O)[C@H](CSSCC[C@H](NC(=O)[C@H](Cc1c[nH]c2ccccc12)NC(=O)[C@H](CC(C)C)NC(=O)[C@H](CCC(=O)O)NC(=O)[C@H](CC(C)C)NC(=O)[C@H](CC(=O)O)NC(=O)[C@H](CC(=O)O)NC(=O)[C@@H](NC(C)=O)[C@@H](C)O)C(=O)N[C@@H](Cc1cnc[nH]1)C(=O)N[C@H](C(=O)N[C@@H](CCSC)C(=O)N[C@@H](Cc1ccc(O)cc1)C(N)=O)[C@@H](C)CC)NC(=O)[C@H](Cc1c[nH]c2ccccc12)NC(=O)[C@H](CC(C)C)NC(=O)[C@H](CCC(=O)O)NC(=O)[C@H](CC(C)C)NC(=O)[C@H](CC(=O)O)NC(=O)[C@H](CC(=O)O)NC(=O)[C@@H](NC(C)=O)[C@H](C)O)C(=O)N[C@@H](CCSC)C(=O)N[C@@H](Cc1ccc(O)cc1)C(N)=O  6.3 nM
6. CCCC[C@H](NC(=O)[C@H](CC(=O)O)NC(=O)[C@H](CC(=O)O)NC(=O)[C@H](CO)NC(C)=O)C(=O)N[C@@H](CCC(=O)O)C(=O)N[C@@H](Cc1ccccc1)C(=O)N[C@@H](Cc1c[nH]c2ccccc12)C(=O)N[C@@H](CSSC[C@H](NC(=O)[C@H](Cc1c[nH]c2ccccc12)NC(=O)[C@H](Cc1ccccc1)NC(=O)[C@H](CCC(=O)O)NC(=O)[C@H](CCCC)NC(=O)[C@H](CC(=O)O)NC(=O)[C@H](CC(=O)O)NC(=O)[C@H](CO)NC(C)=O)C(=O)N[C@@H](Cc1cnc[nH]1)C(=O)N[C@H](C(=O)N[C@@H](CCSC)C(=O)N[C@@H](Cc1ccc(O)cc1)C(N)=O)C(C)C)C(=O)N[C@@H](Cc1cnc[nH]1)C(=O)N[C@H](C(=O)N[C@@H](CCSC)C(=O)N[C@@H](Cc1ccc(O)cc1)C(N)=O)C(C)C (I: Ac-SDD[Nle]EFWCHVMY-NH2 / II: Ac-SDD[Nle]EFWCHVMY-NH2; disulfide I:8-II:8)  23 nM
7. CSCC[C@H](NC(=O)[C@@H](NC(=O)[C@H](Cc1cnc[nH]1)NC(=O)[C@H](CSSC[C@H](NC(=O)[C@H](Cc1c[nH]c2ccccc12)NC(=O)[C@H](Cc1ccccc1)NC(=O)[C@H](CCC(=O)O)NC(=O)[C@H](CCC(C)C)NC(=O)[C@H](CC(=O)O)NC(=O)[C@H](CC(=O)O)NC(=O)[C@H](CO)NC(C)=O)C(=O)N[C@@H](Cc1cnc[nH]1)C(=O)N[C@H](C(=O)N[C@@H](CCSC)C(=O)N[C@@H](Cc1ccc(O)cc1)C(N)=O)C(C)C)NC(=O)[C@H](Cc1c[nH]c2ccccc12)NC(=O)[C@H](Cc1ccccc1)NC(=O)[C@H](CCC(=O)O)NC(=O)[C@H](CCC(C)C)NC(=O)[C@H](CC(=O)O)NC(=O)[C@H](CC(=O)O)NC(=O)[C@H](CO)NC(C)=O)C(C)C)C(=O)N[C@@H](Cc1ccc(O)cc1)C(N)=O (I: Ac-SDD[hLeu]EFWCHVMY-NH2 / II: Ac-SDD[hLeu]EFWCHVMY-NH2; disulfide I:8-II:8)  124 nM
